Measured values as given in patent publication US10576102B2, “KOC1-derived peptide and vaccine including same” (ONCOTHERAPY SCIENCE, INC., priority 2014, dated 2020).

How the values were obtained:
peptide-pulsed C1R-A33 = test: In vitro CTL induction, IFN-gamma ELISPOT assay (HLA-A*3303); type: cell-based, human; conditions: CTLs induced with peptide-pulsed DCs from HLA-A*3303-positive volunteers; day 21; vs peptide-pulsed C1R-A33, compared with unpulsed control
Procedure: (§1) C1R (C1R-A33) that stably expresses HLA-A*3303 was used as a stimulator cell. A cDNA encoding the open-reading frame of HLA-A*3303 was amplified by PCR and cloned into an expression vector. C1R cells were transfected with the expression vector, and then selected using G418 (Invitrogen) for two weeks. The G418-selected cells were seeded into wells containing G418-added culture medium in a 96-well plate, and further cultured for 30 days. The exogenous HLA-A*3303 expression in C1R cells was verified by flow cytometric analysis.
(§2) Monocyte-derived dendritic cells (DCs) were used as the antigen-presenting cell to induce a cytotoxic T lymphocyte (CTL) response against peptides presented on human leukocyte antigens (HLAs). As described in the other sections, DCs were generated in vitro (Nakahara S et al., Cancer Res 2003, 63(14): 4112-8). Specifically, peripheral-blood mononuclear cells isolated from healthy volunteers (HLA-A*3303-positive) with the Ficoll-Paque plus solution (Pharmacia) were separated by attaching to plastic tissue culture dishes (Becton Dickinson) and concentrated as a monocyte fraction. The monocyte-concentrated population was cultured in the presence of 1000 IU/ml granulocyte macrophage colony-stimulating factor (R&D System) and 1000 IU/ml interleukin(IL)-4 (R&D System) in an AIM-V medium (Invitrogen) containing 2% heat-inactivated autologous serum (AS). After seven days of culturing, the cytokine-induced DCs were pulsed with 20 micro-g/ml each of the synthesized peptides in an AIM-V medium at 37 degrees C. for three hours in the presence of 3 micro-g/ml beta 2-microglobulin. The generated cells appeared to express on their cell surface DC-associated molecules such as CD80, CD83, CD86 and HLA class II (data not shown). Next, these peptide-pulsed DCs were inactivated by X-ray irradiation (20 Gy), and mixed in a 1:20 ratio with autologous CD8^+ T cells obtained by positive selection using the CD8 Positive Isolation Kit (Dynal). These culture products were seeded in a 48-well plate (Corning). Each well was made to contain 1.5×10^4 peptide-pulsed DCs, 3×10^5 CD8^+ T cells and 10 ng/ml IL-7 (R&D System) in 0.5 ml of the AIM-V/2% AS medium. Three days later, these culture products were added with a final concentration of 20 IU/ml IL-2 (CHIRON). On day 7 and day 14, T cells were further stimulated with peptide-pulsed autologous DCs. The DCs were prepared every time by the same method as above. On day 21, after the third peptide stimulation, CTLs were examined against the peptide-pulsed C1R-A33 cell by a human interferon (IFN)-gamma enzyme-linked immunospot (ELISPOT) assay (Tanaka H et al., Br J Cancer 2001, 84(1): 94-9; Umano Y et. al., Br J Cancer 2001, 84(8): 1052-7; Uchida N et al., Clin Cancer Res 2004, 10(24): 8577-86; Suda T et al., Cancer Sci 2006, 97(5): 411-9; Watanabe T et al., Cancer Sci 2005, 96(8): 498-506).
Specifically, peptide-pulsed C1R-A33 (1×10^4 cells/well) was prepared as the stimulator cell. The induced CTLs, i.e., CTL lines and CTL clones, were used as the responder cell. The IFN-gamma ELISPOT assay and IFN-gamma ELISA were performed according to the manufacturer's manual.

peptide-pulsed C1R-A03 = test: In vitro CTL induction, IFN-gamma ELISPOT assay (HLA-A*0301); type: cell-based, human; conditions: CTLs induced with peptide-pulsed DCs from HLA-A*0301-positive volunteers; day 21; vs peptide-pulsed C1R-A03, compared with unpulsed control
Procedure: as §1, with “(C1R-A03)” for “(C1R-A33)”, “HLA-A*0301” for “HLA-A*3303”
as §2, with “(HLA-A*0301-positive)” for “(HLA-A*3303-positive)”, “On day 21, after the third peptide stimulation, CTLs were examined against the peptide-pulsed C1R-A33 cell by a human interferon (IFN)-gamma enzyme-linked immunospot (ELISPOT) assay (Tanaka H et al., Br J Cancer 2001, 84(1): 94-9; Umano Y et. al., Br J Cancer 2001, 84(8): 1052-7; Uchida N et al., Clin Cancer Res 2004, 10(24): 8577-86; Suda T et al., Cancer Sci 2006, 97(5): 411-9; Watanabe T et al., Cancer Sci 2005, 96(8): 498-506).” left out

| Sequence | peptide-specific CTL activity (IFN-gamma production), ELISPOT (peptide-pulsed C1R-A33) | peptide-specific CTL activity (IFN-gamma production), ELISPOT (peptide-pulsed C1R-A03) |
| --- | --- | --- |
| ILAHNNFVGR (a peptide derived from KOC1) [SEQ ID NO: 52] | potent IFN-gamma production | potent IFN-gamma production |
| TQFVGAIIGK (a peptide derived from KOC1) [SEQ ID NO: 30] | – | potent IFN-gamma production |
